# Data: patent US20130040882A1, “USE OF FIBROBLAST GROWTH FACTOR FRAGMENTS” (NOVARTIS AG, priority 2003, published 2013)
# Tested on: uterine gene expression
# Test: Gene expression profiling (HGU133A) in the uterus of ovariectomized monkeys treated with estradiol, tamoxifen or raloxifene
# Type: in vivo, cynomolgus monkeys (Macaca fascicularis)
smiles,measurement,setting,value
O=C(c1ccc(OCCN2CCCCC2)cc1)c1c(-c2ccc(O)cc2)sc2cc(O)ccc12 [raloxifene],Uterine expression increase: insulin-like GF binding protein 2 and insulin-like GF 1,compared with OVX controls,approximately 2 fold
same,"Effect on transporter, redox, and cell cycle genes in the uterus (relative to estradiol)","cynomolgus monkey, in vivo",little or no effect
same,"Uterine expression changes: IGFBP 5, latent TGF beta binding protein 1, cysteine-rich angiogenic inducer 61","cynomolgus monkey, in vivo",only modest changes
same,Uterine expression of the remaining signal transduction genes examined,tamoxifen: except for LDL receptor adaptor protein,downregulated
same,"Fold change relative to OVX: ATPase, H+ transporting, lysosomal 38 kda, V0 subunit d isoform 1","uterus, OVX monkeys",1.1 fold
same,"Fold change relative to OVX: ATPase, Na+/K+ transporting, beta 3 polypeptide","uterus, OVX monkeys",0.9 fold
same,Fold change relative to OVX: Biglycan,"uterus, OVX monkeys",2.4 fold
same,Fold change relative to OVX: CDC28 protein kinase regulatory subunit 2,"uterus, OVX monkeys",0.8 fold
same,"Fold change relative to OVX: Cadherin 11, type 2, OB-cadherin (osteoblast)","uterus, OVX monkeys",1.3 fold
same,"Fold change relative to OVX: Calcium channel, voltage-dependent, beta 2 subunit","uterus, OVX monkeys",0.8 fold
same,"Fold change relative to OVX: Catenin (cadherin-associated protein), alpha-like 1","uterus, OVX monkeys",0.8 fold
same,Fold change relative to OVX: Chitinase 3-like 1 (cartilage glycoprotein-39),"uterus, OVX monkeys",1.1 fold
same,Fold change relative to OVX: Chloride intracellular channel 4,"uterus, OVX monkeys",1.4 fold
same,Fold change relative to OVX: Chondroitin sulfate proteoglycan 2 (versican),"uterus, OVX monkeys",1.4 fold
same,"Fold change relative to OVX: Collagen, type I, alpha 1","uterus, OVX monkeys",1.8 fold
same,"Fold change relative to OVX: Collagen, type IV, alpha 2","uterus, OVX monkeys",1.4 fold
same,"Fold change relative to OVX: Collagen, type V, alpha 1","uterus, OVX monkeys",1.2 fold
same,"Fold change relative to OVX: Collagen, type VI, alpha 3","uterus, OVX monkeys",1.2 fold
same,"Fold change relative to OVX: Collagen, type VIII, alpha 2","uterus, OVX monkeys",1.9 fold
same,Fold change relative to OVX: Cyclin D1 (PRAD1: parathyroid adenomatosis 1),"uterus, OVX monkeys",1.2 fold
same,"Fold change relative to OVX: Cysteine-rich, angiogenic inducer, 61","uterus, OVX monkeys",1.7 fold
same,Fold change relative to OVX: Cytochrome c oxidase subunit via polypeptide 1,"uterus, OVX monkeys",1.0 fold
same,Fold change relative to OVX: Cytochrome c oxidase subunit viia polypeptide 2 (liver),"uterus, OVX monkeys",1.1 fold
same,Fold change relative to OVX: Dermatopontin,"uterus, OVX monkeys",1.5 fold
same,Fold change relative to OVX: Dishevelled associated activator of morphogenesis 1,"uterus, OVX monkeys",0.9 fold
same,Fold change relative to OVX: Fibroblast growth factor 2 (basic),"uterus, OVX monkeys",2.0 fold
same,Fold change relative to OVX: Fibulin 1,"uterus, OVX monkeys",1.4 fold
same,Fold change relative to OVX: Four and a half LIM domains 2,"uterus, OVX monkeys",0.9 fold
same,Fold change relative to OVX: G1 to S phase transition 1,"uterus, OVX monkeys",0.9 fold
same,Fold change relative to OVX: Growth associated protein 43,"uterus, OVX monkeys",1.7 fold
same,"Fold change relative to OVX: H2A histone family, member Y","uterus, OVX monkeys",1.0 fold
same,Fold change relative to OVX: Heparan sulfate proteoglycan 2 (perlecan),"uterus, OVX monkeys",1.2 fold
same,Fold change relative to OVX: Histone H2A.F/Z variant,"uterus, OVX monkeys",1.0 fold
same,"Fold change relative to OVX: Insulin-like growth factor binding protein 2, 36 kda","uterus, OVX monkeys",1.1 fold
same,Fold change relative to OVX: Insulin-like growth factor binding protein 5,"uterus, OVX monkeys",2.0 fold
same,"Fold change relative to OVX: Integrin, beta 5","uterus, OVX monkeys",1.5 fold
same,"Fold change relative to OVX: Intercrine-alpha, mrna sequence","uterus, OVX monkeys",1.3 fold
same,Fold change relative to OVX: LDL receptor adaptor protein,"uterus, OVX monkeys",1.0 fold
same,Fold change relative to OVX: LIM and senescent cell antigen-like domains 1,"uterus, OVX monkeys",2.2 fold
same,"Fold change relative to OVX: Laminin, beta 1","uterus, OVX monkeys",1.1 fold
same,Fold change relative to OVX: Latent transforming growth factor beta binding protein 1,"uterus, OVX monkeys",1.8 fold
same,Fold change relative to OVX: Matrix metalloproteinase 19,"uterus, OVX monkeys",0.9 fold
same,Fold change relative to OVX: Mitogen-activated protein kinase kinase kinase kinase 4,"uterus, OVX monkeys",0.8 fold
same,Fold change relative to OVX: Nidogen (enactin),"uterus, OVX monkeys",2.4 fold
same,"Fold change relative to OVX: Osteoglycin (osteoinductive factor, mimecan)","uterus, OVX monkeys",1.6 fold
same,Fold change relative to OVX: Peroxiredoxin 1,"uterus, OVX monkeys",1.0 fold
same,Fold change relative to OVX: Phosphatase and tensin homolog (mutated in multiple advanced cancers 1),"uterus, OVX monkeys",1.1 fold
same,Fold change relative to OVX: Phospholipid transfer protein,"uterus, OVX monkeys",1.2 fold
same,Fold change relative to OVX: Pituitary tumour-transforming 1 interacting protein,"uterus, OVX monkeys",1.5 fold
same,Fold change relative to OVX: Procollagen C-endopeptidase enhancer,"uterus, OVX monkeys",1.7 fold
same,"Fold change relative to OVX: Procollagen-proline, 2-oxoglutarate 4-dioxygenase (proline 4-hydroxylase), alpha polypeptide II","uterus, OVX monkeys",1.2 fold
same,Fold change relative to OVX: Progesterone receptor,"uterus, OVX monkeys",1.9 fold
same,Fold change relative to OVX: Protein tyrosine kinase 9,"uterus, OVX monkeys",1.2 fold
same,"Fold change relative to OVX: SET domain, bifurcated 1","uterus, OVX monkeys",1.1 fold
same,"Fold change relative to OVX: SPARC-like 1 (mast9, hevin)","uterus, OVX monkeys",1.7 fold
same,Fold change relative to OVX: Secreted frizzled-related protein 1,"uterus, OVX monkeys",1.6 fold
same,Fold change relative to OVX: Secreted frizzled-related protein 4,"uterus, OVX monkeys",0.8 fold
same,"Fold change relative to OVX: Secreted protein, acidic, cysteine-rich (osteonectin)","uterus, OVX monkeys",1.7 fold
same,"Fold change relative to OVX: Serine (or cysteine) proteinase inhibitor, clade H (heat shock protein 47), member 1, (collagen binding protein 1)","uterus, OVX monkeys",1.4 fold
same,"Fold change relative to OVX: Solute carrier family 22 (organic cation transporter), member 1-like","uterus, OVX monkeys",1.0 fold
same,"Fold change relative to OVX: Solute carrier family 25 (mitochondrial carrier; adenine nucleotide translocator), member 5","uterus, OVX monkeys",1.1 fold
same,Fold change relative to OVX: Stem cell growth factor; lymphocyte secreted C-type lectin,"uterus, OVX monkeys",1.2 fold
same,Fold change relative to OVX: Tenascin C (hexabrachion),"uterus, OVX monkeys",1.0 fold
same,Fold change relative to OVX: Testis Enhanced Gene Transcript (Bax Inhibitor 1),"uterus, OVX monkeys",1.1 fold
same,Fold change relative to OVX: Thioredoxin interacting protein,"uterus, OVX monkeys",1.0 fold
same,"Fold change relative to OVX: Transforming growth factor, beta-induced, 68 kda","uterus, OVX monkeys",1.7 fold
same,"Fold change relative to OVX: Ubiquinol-cytochrome c reductase, Rieske iron-sulfur polypeptide 1","uterus, OVX monkeys",1.0 fold
same,"Fold change relative to OVX: Wingless-type MMTV integration site family, member 2B","uterus, OVX monkeys",1.4 fold
same,"Fold change relative to OVX: Wingless-type MMTV integration site family, member 16","uterus, OVX monkeys",0.9 fold
same,"Fold change relative to SHAM control: ATPase, H+ transporting, lysosomal 38 kda, V0 subunit d isoform 1","uterus, OVX monkeys",1.0 fold
same,"Fold change relative to SHAM control: ATPase, Na+/K+ transporting, beta 3 polypeptide","uterus, OVX monkeys",0.5 fold
same,Fold change relative to SHAM control: Biglycan,"uterus, OVX monkeys",0.9 fold
same,Fold change relative to SHAM control: CDC28 protein kinase regulatory subunit 2,"uterus, OVX monkeys",0.5 fold
same,Fold change relative to SHAM control: Chitinase 3-like 1 (cartilage glycoprotein-39),"uterus, OVX monkeys",0.8 fold
same,Fold change relative to SHAM control: Chloride intracellular channel 4,"uterus, OVX monkeys",0.7 fold
same,Fold change relative to SHAM control: Chondroitin sulfate proteoglycan 2 (versican),"uterus, OVX monkeys",1.0 fold
same,"Fold change relative to SHAM control: Collagen, type I, alpha 1","uterus, OVX monkeys",0.7 fold
same,"Fold change relative to SHAM control: Collagen, type IV, alpha 2","uterus, OVX monkeys",0.8 fold
same,"Fold change relative to SHAM control: Collagen, type V, alpha 1","uterus, OVX monkeys",0.6 fold
same,"Fold change relative to SHAM control: Collagen, type VI, alpha 3","uterus, OVX monkeys",0.7 fold
same,"Fold change relative to SHAM control: Collagen, type VIII, alpha 2","uterus, OVX monkeys",1.1 fold
same,Fold change relative to SHAM control: Cyclin D1 (PRAD1: parathyroid adenomatosis 1),"uterus, OVX monkeys",1.3 fold
same,"Fold change relative to SHAM control: Cysteine-rich, angiogenic inducer, 61","uterus, OVX monkeys",0.9 fold
same,Fold change relative to SHAM control: Cytochrome c oxidase subunit via polypeptide 1,"uterus, OVX monkeys",0.8 fold
same,Fold change relative to SHAM control: Cytochrome c oxidase subunit viia polypeptide 2 (liver),"uterus, OVX monkeys",1.1 fold
same,Fold change relative to SHAM control: Dermatopontin,"uterus, OVX monkeys",0.8 fold
same,Fold change relative to SHAM control: Fibroblast growth factor 2 (basic),"uterus, OVX monkeys",1.0 fold
